Data on one compound can be found in BindingDB's records for patent US20230286943 (Sanofi, 2023).

The target of the assay is T1, Interleukin-17A (Homo sapiens, UniProt Q16552).
T1 sequence (Q16552 whole entry): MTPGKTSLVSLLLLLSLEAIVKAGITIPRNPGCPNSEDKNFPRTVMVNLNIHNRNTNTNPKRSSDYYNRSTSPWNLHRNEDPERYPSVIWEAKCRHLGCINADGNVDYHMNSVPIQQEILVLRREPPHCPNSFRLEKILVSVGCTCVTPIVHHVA
Description: AlphaLISA Assay. As to the method:
The ability of the compounds to block binding of IL-17A to its receptor, IL-17RA, was analysed in a competition assay using AlphaLISA technology (Perkin Elmer). The assay is a bead based AlphaLISA where the IL-17RA is captured on the acceptor bead via an Fc tag and IL-17A is captured on the streptavidin donor bead via a biotinylated anti-IL-17A antibody.Assay buffer was prepared by adding 0.05% Tween-20 (v/v) and 0.1% BSA to Phosphate Buffered Saline (PBS). The assay was carried out in 384-well white low volume plates (Corning 4512). 10 μL of a 7.5 nM stock of human recombinant IL-17A (R&D Systems 7955-IL/CF) diluted in assay buffer was dispensed into the assay plate and compounds or DMSO vehicle control were added in a volume of 75 nL using a D300 dispenser (Hewlett Packard). The compounds were pre-incubated with the IL-17A for 24 h at room temperature (or for 30 min, where indicated by * in Table A below) prior to addition of 5 μL of a 5 nM stock of human recombinant IL-17RA/Fc chimera (R&D Systems 177-IR-100) diluted in assay buffer. […] The luminescence signal was measured using an Enspire plate reader (Perkin Elmer) with excitation at 680 nm and emission at 615 nm. Data were analysed using GraphPad Prism and fitted to a 4-parameter logistic equation.

In turn, `Cc1nnc(C)n1-c1ccc(NC(=O)[C@@H](NC(=O)c2ccnn2C)C2CCCCCC2)nc1` [US20230286943, Example 62] gave an IC50 of 0.794 µM.
